# Data taken from ChEMBL document CHEMBL3885861, “Open TG-GATES”.
# Species: Rattus norvegicus
# Test: Open TG-GATES - Regimen: Single
# Type: toxicity, organism-based, Sprague-Dawley
# Set-up: regimen Single, gender Male, age 6 weeks
# Conditions: in vivo, po, route gavage; for APTT / Bas / Eos / Fbg / Hb / Ht / Lym / MCH / MCHC / MCV / Mono / Neu / PT / Plat / RBC / Ret / WBC: tissue Blood; for KIDNEY_L / KIDNEY_R / KIDNEY_TOTAL: tissue Kidney; for LIVER: tissue Liver; for ALP / ALT / AST / BUN / CRE / Ca / Cl / DBIL / GLC / IP / K / LDH / Na / PL / RALB / TBIL / TC / TP / gamma-GTP: tissue Plasma
# [1] = 5 mg/kg, 3 h, dose level Middle
# [2] = 5 mg/kg, 6 h, dose level Middle
# [3] = 5 mg/kg, 9 h, dose level Middle
structure (smiles),measurement,setting,value
O=P1(N(CCCl)CCCl)NCCCO1 (stereo not given) [CYCLOPHOSPHAMIDE ANHYDROUS],TERMINAL_BW,"2 mg/kg, 24 h, dose level Low",197.9 g
same,APTT,"2 mg/kg, 24 h, dose level Low",22 s
same,Bas,"2 mg/kg, 24 h, dose level Low",0%
same,Eos,"2 mg/kg, 24 h, dose level Low",1%
same,Fbg,"2 mg/kg, 24 h, dose level Low",284.2 mg/dL
same,Hb,"2 mg/kg, 24 h, dose level Low",13.3 g/dL
same,Ht,"2 mg/kg, 24 h, dose level Low",39.7%
same,Lym,"2 mg/kg, 24 h, dose level Low",82%
same,MCH,"2 mg/kg, 24 h, dose level Low",21.1 pg
same,MCHC,"2 mg/kg, 24 h, dose level Low",33.5%
same,MCV,"2 mg/kg, 24 h, dose level Low",63 fL
same,Mono,"2 mg/kg, 24 h, dose level Low",2.2%
same,Neu,"2 mg/kg, 24 h, dose level Low",14.2%
same,PT,"2 mg/kg, 24 h, dose level Low",17 s
same,Plat,"2 mg/kg, 24 h, dose level Low",117.1 x10_4/uL
same,RBC,"2 mg/kg, 24 h, dose level Low",630.8 x10_4/ul
same,Ret,"2 mg/kg, 24 h, dose level Low",7%
same,WBC,"2 mg/kg, 24 h, dose level Low",74.3 x10_2/uL
same,KIDNEY_L,"2 mg/kg, 24 h, dose level Low",0.9 g
same,KIDNEY_R,"2 mg/kg, 24 h, dose level Low",0.9 g
same,KIDNEY_TOTAL,"2 mg/kg, 24 h, dose level Low",1.8 g
same,LIVER,"2 mg/kg, 24 h, dose level Low",9.1 g
same,ALP,"2 mg/kg, 24 h, dose level Low",1746.6 IU/L
same,ALT,"2 mg/kg, 24 h, dose level Low",44.6 IU/L
same,AST,"2 mg/kg, 24 h, dose level Low",72.8 IU/L
same,BUN,"2 mg/kg, 24 h, dose level Low",17.4 mg/dL
same,CRE,"2 mg/kg, 24 h, dose level Low",0.2 mg/dL
same,Ca,"2 mg/kg, 24 h, dose level Low",10.9 mg/dL
same,Cl,"2 mg/kg, 24 h, dose level Low",106 meq/L
same,DBIL,"2 mg/kg, 24 h, dose level Low",0 mg/dL
same,GLC,"2 mg/kg, 24 h, dose level Low",179.6 mg/dL
same,IP,"2 mg/kg, 24 h, dose level Low",7.5 mg/dL
same,K,"2 mg/kg, 24 h, dose level Low",4.5 meq/L
same,LDH,"2 mg/kg, 24 h, dose level Low",207.2 IU/L
same,Na,"2 mg/kg, 24 h, dose level Low",142.4 meq/L
same,PL,"2 mg/kg, 24 h, dose level Low",139.6 mg/dL
same,RALB,"2 mg/kg, 24 h, dose level Low",3 g/dL
same,TBIL,"2 mg/kg, 24 h, dose level Low",0.006 mg/dL
same,TC,"2 mg/kg, 24 h, dose level Low",70.6 mg/dL
same,TP,"2 mg/kg, 24 h, dose level Low",5.5 g/dL
same,gamma-GTP,"2 mg/kg, 24 h, dose level Low",0.8 IU/L
same,TERMINAL_BW,[1],186.6 g
same,APTT,[1],22.8 s
same,Bas,[1],0%
same,Eos,[1],0.8%
same,Fbg,[1],290.2 mg/dL
same,Hb,[1],12.9 g/dL
same,Ht,[1],39%
same,Lym,[1],83.6%
same,MCH,[1],21.1 pg
same,MCHC,[1],33.2%
same,MCV,[1],63.7 fL
same,Mono,[1],1.4%
same,Neu,[1],13.6%
same,PT,[1],15.6 s
same,Plat,[1],113 x10_4/uL
same,RBC,[1],611.6 x10_4/ul
same,Ret,[1],8.1%
same,WBC,[1],60.2 x10_2/uL
same,KIDNEY_L,[1],0.8 g
same,KIDNEY_R,[1],0.9 g
same,KIDNEY_TOTAL,[1],1.7 g
same,LIVER,[1],8.3 g
same,ALP,[1],1552.4 IU/L
same,ALT,[1],44.4 IU/L
same,AST,[1],73.4 IU/L
same,BUN,[1],11.2 mg/dL
same,CRE,[1],0.1 mg/dL
same,Ca,[1],10.6 mg/dL
same,Cl,[1],106.4 meq/L
same,DBIL,[1],0 mg/dL
same,GLC,[1],180.6 mg/dL
same,IP,[1],9 mg/dL
same,K,[1],4 meq/L
same,LDH,[1],175.2 IU/L
same,Na,[1],143.8 meq/L
same,PL,[1],137.6 mg/dL
same,RALB,[1],3 g/dL
same,TBIL,[1],0.034 mg/dL
same,TC,[1],81.4 mg/dL
same,TP,[1],5.4 g/dL
same,gamma-GTP,[1],1 IU/L
same,TERMINAL_BW,[2],189.8 g
same,APTT,[2],22.5 s
same,Bas,[2],0%
same,Eos,[2],0.4%
same,Fbg,[2],311.4 mg/dL
same,Hb,[2],13.1 g/dL
same,Ht,[2],39.4%
same,Lym,[2],78%
same,MCH,[2],21.1 pg
same,MCHC,[2],33.2%
same,MCV,[2],63.6 fL
same,Mono,[2],2.8%
same,Neu,[2],17.8%
same,PT,[2],16.1 s
same,Plat,[2],130.3 x10_4/uL
same,RBC,[2],618.8 x10_4/ul
same,Ret,[2],7.9%
same,WBC,[2],86.9 x10_2/uL
same,KIDNEY_L,[2],0.9 g
same,KIDNEY_R,[2],0.9 g
same,KIDNEY_TOTAL,[2],1.8 g
same,LIVER,[2],8.4 g
same,ALP,[2],1359.6 IU/L
same,ALT,[2],39.6 IU/L
same,AST,[2],66.8 IU/L
same,BUN,[2],8.2 mg/dL
same,CRE,[2],0.1 mg/dL
same,Ca,[2],10.7 mg/dL
same,Cl,[2],107.6 meq/L
same,DBIL,[2],0 mg/dL
same,GLC,[2],172 mg/dL
same,IP,[2],9.5 mg/dL
same,K,[2],4.1 meq/L
same,LDH,[2],162.6 IU/L
same,Na,[2],143.2 meq/L
same,PL,[2],139.4 mg/dL
same,RALB,[2],2.8 g/dL
same,TBIL,[2],0.03 mg/dL
same,TC,[2],77.8 mg/dL
same,TP,[2],5.3 g/dL
same,gamma-GTP,[2],1 IU/L
same,TERMINAL_BW,[3],193 g
same,APTT,[3],20.2 s
same,Bas,[3],0%
same,Eos,[3],1%
same,Fbg,[3],309 mg/dL
same,Hb,[3],12.6 g/dL
same,Ht,[3],37.9%
same,Lym,[3],71.6%
same,MCH,[3],21.1 pg
same,MCHC,[3],33.3%
same,MCV,[3],63.3 fL
same,Mono,[3],2.6%
same,Neu,[3],24.4%
same,PT,[3],16.3 s
same,Plat,[3],115.7 x10_4/uL
same,RBC,[3],599.6 x10_4/ul
same,Ret,[3],8.6%
